Earlier results on one molecule are cited in article PMC12009570 (International Journal of Nanomedicine, 2025).

Experiment in data set [1]: not given
This is another data set of the same source.

Consider `Cl.O=C1[C@@H]2[C@H]3CC[C@H](C3)[C@@H]2C(=O)N1C[C@@H]1CCCC[C@H]1CN1CCN(c2nsc3ccccc23)CC1` [LSD, Lurasidone hydrochloride], for which, for the setting “conventional tablets, oral”, the oral bioavailability was 9–19%. Further, under “food effect”, the “AUC, times higher than in the fasted state” value is recorded as 2 times and the “Cmax, times higher than in the fasted state” value is on record as 3 times. In addition, the “pH at which most soluble” value in data set [1] is on record as 3.8.
